Data: patent publication US11827657B2, “Boron containing pyrazole compounds, compositions comprising them, methods and uses thereof” (BOEHRINGER INGELHEIM ANIMAL HEALTH USA INC., priority 2020, dated 2023)

biological target: JAK1 (Homo sapiens, UniProt P23458); test: Biochemical Kinase Assay (JAK), 33P-ATP filter-binding; conditions: Biochemical Kinase Inhibition Assay; potency level of IC50; read-out: JAK1 (range)
Method: Biochemical Kinase Assay Protocol (JAK) • Reagent: Base Reaction buffer; 20 mM Hepes (pH 7.5), 10 mM MgCl2, 1 mM EGTA, 0.02% Brij™ 35, 0.02 mg/ml BSA, 0.1 mM Na3VO4, 2 mM DTT, 1% DMSO, where required cofactors were added individually to each kinase reaction.
Reaction Procedure: • 1. Prepared indicated substrate in freshly prepared Base Reaction Buffer • 2. Delivered any required cofactors to the substrate solution above • 3. Delivered indicated kinase into the substrate solution and gently mix • 4. Delivered compounds in DMSO into the kinase reaction mixture by Acoustic technology (Echo550; nanoliter range), incubated for 20 minutes at room temperature • 5. Delivered 33P-ATP into the reaction mixture to initiate the reaction. • 6. Incubated kinase reaction for 2 hours at room temperature • 7. Reactions were spotted onto P81 ion exchange paper • 8. Detected kinase activity by filter-binding method.
Compounds according to the present invention were tested in the Biochemical Kinase Assay Protocol. The results are provided below in Table 1, wherein the potency levels A, B, and C in the columns labeled JAK1 (range) correspond to IC50 as follows: A<10 nM; B=10-50 nM and C>50 nM. The Example Number entries formatted ##a represent stereoisomer one and entries formatted ##b represent stereoisomer two.

Chain of JAK1 (P23458 whole entry, species assumed): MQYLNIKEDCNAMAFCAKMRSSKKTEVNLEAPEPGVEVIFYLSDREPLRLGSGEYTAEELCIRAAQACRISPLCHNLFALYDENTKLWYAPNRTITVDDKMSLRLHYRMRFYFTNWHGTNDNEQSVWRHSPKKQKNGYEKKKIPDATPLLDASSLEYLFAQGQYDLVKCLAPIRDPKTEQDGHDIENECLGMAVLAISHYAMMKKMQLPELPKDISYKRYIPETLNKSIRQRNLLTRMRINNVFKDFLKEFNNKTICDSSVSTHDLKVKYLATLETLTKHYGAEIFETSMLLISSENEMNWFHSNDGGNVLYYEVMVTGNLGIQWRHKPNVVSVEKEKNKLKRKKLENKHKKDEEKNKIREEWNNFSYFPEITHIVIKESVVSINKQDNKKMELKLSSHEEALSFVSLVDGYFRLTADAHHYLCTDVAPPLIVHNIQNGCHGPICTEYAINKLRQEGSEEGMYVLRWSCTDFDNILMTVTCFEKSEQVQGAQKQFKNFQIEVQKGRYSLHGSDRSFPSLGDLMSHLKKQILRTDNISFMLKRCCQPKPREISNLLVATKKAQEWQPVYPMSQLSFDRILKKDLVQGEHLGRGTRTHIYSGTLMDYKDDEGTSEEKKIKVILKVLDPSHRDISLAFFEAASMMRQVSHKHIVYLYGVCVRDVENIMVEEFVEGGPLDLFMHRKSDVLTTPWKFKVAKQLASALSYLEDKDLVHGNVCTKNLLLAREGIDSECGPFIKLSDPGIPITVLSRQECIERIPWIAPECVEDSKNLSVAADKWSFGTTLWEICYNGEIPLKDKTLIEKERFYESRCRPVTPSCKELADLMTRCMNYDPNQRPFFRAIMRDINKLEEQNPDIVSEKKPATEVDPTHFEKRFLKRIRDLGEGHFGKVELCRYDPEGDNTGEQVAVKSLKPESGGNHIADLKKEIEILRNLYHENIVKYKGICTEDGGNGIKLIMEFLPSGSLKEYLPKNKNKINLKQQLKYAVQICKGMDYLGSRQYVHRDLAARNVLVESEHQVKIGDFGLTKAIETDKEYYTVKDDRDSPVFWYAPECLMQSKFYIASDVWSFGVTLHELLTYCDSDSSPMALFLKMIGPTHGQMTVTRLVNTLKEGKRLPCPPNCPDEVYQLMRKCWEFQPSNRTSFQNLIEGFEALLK

Row | Compound | IC50
1 | N#C[C@@H]1CCOC[C@H]1n1cc(C(N)=O)c(Nc2cc(F)c3c(c2)COB3O)n1 (single isomer, unassigned) [Example 38a, 1-[trans-4-cyanotetrahydro-2H-pyran-3-yl]-3-[(7-fluoro-1-hydroxy-3H-2,1-benzoxaborol-5-yl)amino]pyrazole-4-carboxamide] | 10 to 50 nM
2 | N#C[C@@H]1CCOC[C@H]1n1cc(C(N)=O)c(Nc2cc(F)c3c(c2)COB3O)n1 (single isomer, unassigned) [Example 38b, 1-[trans-4-cyanotetrahydropyran-3-yl]-3-[(7-fluoro-1-hydroxy-3H-2,1-benzoxaborol-5-yl)amino]pyrazole-4-carboxamide] | < 10 nM
3 | N#C[C@@H]1CCOC[C@H]1n1cc(C(N)=O)c(Nc2ccc3c(c2)COB3O)n1 (single isomer, unassigned) [Example 41a, 1-(trans-4-cyanotetrahydro-2H-pyran-3-yl)-3-((1-hydroxy-1,3-dihydrobenzo[c][1,2]oxaborol-5-yl)amino)-1H-pyrazole-4-carboxamide] | < 10 nM
4 | N#C[C@@H]1CCOC[C@H]1n1cc(C(N)=O)c(Nc2ccc3c(c2)COB3O)n1 (single isomer, unassigned) [Example 41b, 1-(trans-4-cyanotetrahydro-2H-pyran-3-yl)-3-((1-hydroxy-1,3-dihydrobenzo[c][1,2]oxaborol-5-yl)amino)-1H-pyrazole-4-carboxamide] | < 10 nM
5 | N#C[C@@H]1CCOC[C@H]1n1cc(C(N)=O)c(Nc2ccc3c(c2)B(O)OCC3)n1 (single isomer, unassigned) [Example 42a, 1-[trans-4-cyanotetrahydro-2H-pyran-3-yl]-3-[(1-hydroxy-3,4-dihydro-2,1-benzoxaborinin-7-yl)amino]pyrazole-4-carboxamide] | < 10 nM
6 | N#C[C@@H]1CCOC[C@H]1n1cc(C(N)=O)c(Nc2ccc3c(c2)B(O)OCC3)n1 (single isomer, unassigned) [Example 42b, 1-[trans-4-cyanotetrahydro-2H-pyran-3-yl]-3-[(1-hydroxy-3,4-dihydro-2,1-benzoxaborinin-7-yl)amino]pyrazole-4-carboxamide] | < 10 nM
7 | CC1=Cc2cc(Nc3nn([C@@H]4CCC[C@H]4C#N)cc3C(N)=O)cc(F)c2OB1O (single isomer, unassigned) [Example 45a, 1-[trans-2-cyanocyclopentyl]-3-[(8-fluoro-2-hydroxy-3-methyl-1,2-benzoxaborinin-6-yl)amino]pyrazole-4-carboxamide] | < 10 nM
8 | CC1=CB(O)Oc2c(C)cc(Nc3nn([C@@H]4COCC[C@H]4C#N)cc3C(N)=O)cc21 (single isomer, unassigned) [Example 47a, 1-[trans-4-cyanotetrahydro-2H-pyran-3-yl]-3-[(2-hydroxy-4,8-dimethyl-1,2-benzoxaborinin-6-yl)amino]pyrazole-4-carboxamide] | < 10 nM
9 | CC1=CB(O)Oc2c(C)cc(Nc3nn([C@@H]4COCC[C@H]4C#N)cc3C(N)=O)cc21 (single isomer, unassigned) [Example 47b, 1-[trans-4-cyanotetrahydro-2H-pyran-3-yl]-3-[(2-hydroxy-4,8-dimethyl-1,2-benzoxaborinin-6-yl)amino]pyrazole-4-carboxamide] | < 10 nM
10 | N#C[C@@H]1CCOC[C@H]1n1cc(C(N)=O)c(Nc2cc(Cl)c3c(c2)COB3O)n1 (single isomer, unassigned) [Example 52a, 3-((7-chloro-1-hydroxy-1,3-dihydrobenzo[c][1,2]oxaborol-5-yl)amino)-1-(trans-4-cyanotetrahydro-2H-pyran-3-yl)-1H-pyrazole-4-carboxamide] | < 10 nM
11 | N#C[C@@H]1CCOC[C@H]1n1cc(C(N)=O)c(Nc2cc(Cl)c3c(c2)COB3O)n1 (single isomer, unassigned) [Example 52b, 3-((7-chloro-1-hydroxy-1,3-dihydrobenzo[c][1,2]oxaborol-5-yl)amino)-1-(trans-4-cyanotetrahydro-2H-pyran-3-yl)-1H-pyrazole-4-carboxamide] | < 10 nM
12 | N#C[C@@H]1CCOC[C@H]1n1cc(C(N)=O)c(Nc2cc3c(c(OC(F)(F)F)c2)OB(O)C=C3)n1 (single isomer, unassigned) [Example 53a, 1-[trans-4-cyanotetrahydro-2H-pyran-3-yl]-3-[[2-hydroxy-8-(trifluoromethoxy)-1,2-benzoxaborinin-6-yl]amino]pyrazole-4-carboxamide] | > 50 nM
13 | N#C[C@@H]1CCOC[C@H]1n1cc(C(N)=O)c(Nc2cc3c(c(OC(F)(F)F)c2)OB(O)C=C3)n1 (single isomer, unassigned) [Example 53b, 1-[trans-4-cyanotetrahydro-2H-pyran-3-yl]-3-[[2-hydroxy-8-(trifluoromethoxy)-1,2-benzoxaborinin-6-yl]amino]pyrazole-4-carboxamide] | < 10 nM

The remaining lines, values ahead:

Row | IC50 | Compound
14 | < 10 nM | N#C[C@@H]1CCOC[C@H]1n1cc(C(N)=O)c(Nc2ccc3c(c2)C(Cl)=CB(O)O3)n1 (single isomer, unassigned) [Example 43a, 3-[(4-chloro-2-hydroxy-1,2-benzoxaborinin-6-yl)amino]-1-[trans-4-cyanotetrahydro-2H-pyran-3-yl]pyrazole-4-carboxamide]
15 | < 10 nM | N#C[C@@H]1CCOC[C@H]1n1cc(C(N)=O)c(Nc2ccc3c(c2)C(Cl)=CB(O)O3)n1 (single isomer, unassigned) [Example 43b, 3-[(4-chloro-2-hydroxy-1,2-benzoxaborinin-6-yl)amino]-1-[trans-4-cyanotetrahydro-2H-pyran-3-yl]pyrazole-4-carboxamide]
16 | < 10 nM | N#C[C@@H]1CCOC[C@H]1n1cc(C(N)=O)c(Nc2cc(F)c3c(c2)C=CB(O)O3)n1 (single isomer, unassigned) [Example 44a, 1-[trans-4-cyanotetrahydro-2H-pyran-3-yl]-3-[(8-fluoro-2-hydroxy-1,2-benzoxaborinin-6-yl)amino]pyrazole-4-carboxamide]
17 | < 10 nM | N#C[C@@H]1CCOC[C@H]1n1cc(C(N)=O)c(Nc2cc(F)c3c(c2)C=CB(O)O3)n1 (single isomer, unassigned) [Example 44b, 1-[trans-4-cyanotetrahydro-2H-pyran-3-yl]-3-[(8-fluoro-2-hydroxy-1,2-benzoxaborinin-6-yl)amino]pyrazole-4-carboxamide]
18 | > 50 nM | Cc1cc2c(cc1Nc1nn([C@@H]3COCC[C@H]3C#N)cc1C(N)=O)C=CB(O)O2 (single isomer, unassigned) [Example 46a, 1-(trans-4-cyanotetrahydro-2H-pyran-3-yl)-3-((2-hydroxy-7-methyl-2H-benzo[e][1,2]oxaborinin-6-yl)amino)-1H-pyrazole-4-carboxamide]
19 | > 50 nM | Cc1cc2c(cc1Nc1nn([C@@H]3COCC[C@H]3C#N)cc1C(N)=O)C=CB(O)O2 (single isomer, unassigned) [Example 46b, 1-(trans-4-cyanotetrahydro-2H-pyran-3-yl)-3-((2-hydroxy-7-methyl-2H-benzo[e][1,2]oxaborinin-6-yl)amino)-1H-pyrazole-4-carboxamide]
20 | < 10 nM | CC(C)C1=Cc2cc(Nc3nn([C@@H]4COCC[C@H]4C#N)cc3C(N)=O)ccc2OB1O (single isomer, unassigned) [Example 48a, 1-(trans-4-cyanotetrahydro-2H-pyran-3-yl)-3-((2-hydroxy-3-isopropyl-2H-benzo[e][1,2]oxaborinin-6-yl)amino)-1H-pyrazole-4-carboxamide]
21 | < 10 nM | CC(C)C1=Cc2cc(Nc3nn([C@@H]4COCC[C@H]4C#N)cc3C(N)=O)ccc2OB1O (single isomer, unassigned) [Example 48b, 1-(trans-4-cyanotetrahydro-2H-pyran-3-yl)-3-((2-hydroxy-3-isopropyl-2H-benzo[e][1,2]oxaborinin-6-yl)amino)-1H-pyrazole-4-carboxamide]
22 | < 10 nM | N#C[C@@H]1CCOC[C@H]1n1cc(C(N)=O)c(Nc2ccc3c(c2)C=CB(O)O3)n1 (single isomer, unassigned) [Example 51a, 1-[trans-4-cyanotetrahydro-2H-pyran-3-yl]-3-[(2-hydroxy-1,2-benzoxaborinin-6-yl)amino]pyrazole-4-carboxamide]
23 | < 10 nM | N#C[C@@H]1CCOC[C@H]1n1cc(C(N)=O)c(Nc2ccc3c(c2)C=CB(O)O3)n1 (single isomer, unassigned) [Example 51b, 1-[trans-4-cyanotetrahydro-2H-pyran-3-yl]-3-[(2-hydroxy-1,2-benzoxaborinin-6-yl)amino]pyrazole-4-carboxamide]
24 | < 10 nM | N#C[C@@H]1CCOC[C@H]1n1cc(C(N)=O)c(Nc2cc3c(c(C4CC4)c2)OB(O)C=C3)n1 (single isomer, unassigned) [Example 55a, 1-[trans-4-cyanotetrahydro-2H-pyran-3-yl]-3-[(8-cyclopropyl-2-hydroxy-1,2-benzoxaborinin-6-yl)amino]pyrazole-4-carboxamide]
25 | > 50 nM | N#C[C@@H]1CCOC[C@H]1n1cc(C(N)=O)c(Nc2cc3c(c(C4CC4)c2)OB(O)C=C3)n1 (single isomer, unassigned) [Example 55b, 1-[trans-4-cyanotetrahydro-2H-pyran-3-yl]-3-[(8-cyclopropyl-2-hydroxy-1,2-benzoxaborinin-6-yl)amino]pyrazole-4-carboxamide]
26 | < 10 nM | CC1=CB(O)Oc2ccc(Nc3nn(C4COCCC4C#N)cc3C(N)=O)cc21 (stereo not drawn) [Example 3, 1-[trans-4-cyanotetrahydro-2H-pyran-3-yl]-3-[(2-hydroxy-4-methyl-1,2-benzoxaborinin-6-yl)amino]pyrazole-4-carboxamide]
